Read-outs that look alike come from different tables or passages of the source.
Assays:
[1] = system: IFNα stimulated Kit225 T cells (STAT-dependent luciferase reporter); assay: Kit225 T cell assay, IFNα-stimulated STAT-dependent luciferase reporter; type: cell-based, human; details: 200 U/mL human recombinant IFNα, 5-6 hours, read-out: IFNα Kit225 Reporter (IC50)
Procedure: (§1) Kit225 T cells with a stably-integrated STAT-dependent luciferase reporter were plated in RPMI (Gibco) containing 10% heat-inactivated FBS (Gibco) and 100 U/mL PenStrep (Gibco). The cells were then stimulated with either 20 ng/mL human recombinant IL-23 or 200 U/mL human recombinant IFNα (PBL InterferonSource) for 5-6 hours. Luciferase expression was measured using the STEADY-GLO® Luciferase Assay System (Promega) according to the manufacturer's instructions. Inhibition data were calculated by comparison to no inhibitor control wells for 0% inhibition and non-stimulated control wells for 100% inhibition.

[2] = system: IL-23 stimulated Kit225 T cells (STAT-dependent luciferase reporter); assay: Kit225 T cell assay, IL-23-stimulated STAT-dependent luciferase reporter; type: cell-based, human; details: 20 ng/mL human recombinant IL-23, 5-6 hours, read-out: IL-23 Kit225 Reporter (IC50)
Procedure: as §1

SMILES | IC50 [1] [nM] | IC50 [2] [nM] | IC50 ([1]; KIT225) [nM] | IC50 ([2]; KIT225) [nM]
CNC(=O)c1nnc(Nc2cc(C(C)(C)O)ccn2)cc1Nc1cccc(-c2ncn(C)n2)c1OC [Example 120] | 10 | 60 | – | –
CNC(=O)c1nnc(NC(=O)C2CC2)cc1Nc1cccc(-c2ncc(C)s2)c1OC [Example 101] | 60 | 100 | – | –
CNC(=O)c1nnc(Nc2cc(C)n(C)n2)cc1Nc1cccc(-c2cnc(C)s2)c1OC [Example 161] | 210 | 210 | – | –
CNC(=O)c1nnc(NC(=O)C2CC2)cc1Nc1cccc(-c2ccn(C)n2)c1OC [Example 54] | 20 | 40 | – | –
[2H]C([2H])([2H])NC(=O)c1nnc(NC(=O)C2CC2)cc1Nc1cccc(-c2nc(C)no2)c1OC [Example 162, 6-(cyclopropanecarboxamido)-4-((2-methoxy-3-(3-methyl-1,2,4-oxadiazol-5-yl)phenyl)amino)-N-trideuteromethylpyridazine-3-carboxamide] | – | – | 60 | 120
CNC(=O)c1nnc(NC(=O)C2CC2)cc1Nc1cccc(-c2nnnn2C)c1OC [Example 143] | 140 | 40 | – | –
CNC(=O)c1nnc(NC(=O)C2CC2)cc1Nc1cccc(-c2ncn(C)n2)c1OC [Example 52] | 9.21 | 10 | – | –
CCc1ccnc(Nc2cc(Nc3cccc(-c4ncn(C)n4)c3OC)c(C(=O)NC)nn2)c1 [Example 128] | 3.17 | 6.08 | – | –
CNC(=O)c1nnc(NC(=O)C2CC2)cc1Nc1cccc(-c2ncnn2C)c1OC [Example 179] | 140 | 450 | – | –
CNC(=O)c1nnc(Nc2cc(C)n(C)n2)cc1Nc1cccc(-c2nccs2)c1OC [Example 107] | 140 | 90 | – | –
CNC(=O)c1nnc(Nc2ccc(F)cn2)cc1Nc1cccc(-c2ccn(C)n2)c1OC [Example 55] | 20 | 20 | – | –
CS(=O)(=O)c1ccccc1Nc1cc(Nc2ccc(F)cn2)nnc1C(N)=O [Example 2] | 50 | 140 | – | –
[2H]C([2H])([2H])NC(=O)c1nnc(NC(=O)C2CC2)cc1Nc1cccc(-c2nc(C)nn2C)c1OC [Example 182] | – | – | 80 | 190
CNC(=O)c1nnc(Nc2cc(N3CCN(CCO)CC3)nc(C)n2)cc1Nc1cccc(-c2ncn(C)n2)c1OC [Example 99] | 20 | 60 | – | –
CNC(=O)c1nnc(Nc2cc(C)n(C)n2)cc1Nc1cccc(-c2nnc(C)o2)c1OC [Example 152] | 30 | 130 | – | –
CNC(=O)c1nnc(Nc2cc(C)c(F)cn2)cc1Nc1cccc(-c2nccs2)c1OC [Example 106] | 80 | 80 | – | –

SMILES | IC50 [1] [nM] | IC50 [2] [nM] | IC50 ([1]; KIT225) [nM] | IC50 ([2]; KIT225) [nM]
CNC(=O)c1nnc(Nc2cc(C)nc(C)n2)cc1Nc1cccc(-c2c[nH]nn2)c1OC [Example 191] | 8.63 | 10 | – | –
CNC(=O)c1nnc(NC(=O)C2CC2)cc1Nc1ccccc1S(C)(=O)=O [Example 12] | 100 | 230 | – | –
CNC(=O)c1nnc(Nc2cc(C)n(C)n2)cc1Nc1cccc(-c2ncccn2)c1OC [Example 92] | 8.63 | 40 | – | –
CNC(=O)c1nnc(Nc2ccnc(C)n2)cc1Nc1cccc(-c2ncn(C)n2)c1OC [Example 103] | 6.06 | 20 | – | –
CNC(=O)c1nnc(Nc2cc(C)n(C)n2)cc1Nc1cccc(-c2n[nH]c(C)n2)c1OC [Example 148] | 10 | 20 | – | –
CNC(=O)c1nnc(NC(=O)C2CC2)cc1Nc1cccc(-c2nccs2)c1OC [Example 105] | 140 | 180 | – | –
CCOc1ccnc(Nc2cc(Nc3cccc(-c4ncn(C)n4)c3OC)c(C(=O)NC)nn2)c1 [Example 127] | 20 | 30 | – | –
CNC(=O)c1nnc(NC(=O)C2CC2)cc1Nc1cccc(-c2ncn(CCF)n2)c1OC [Example 175] | 10 | 20 | – | –
CNC(=O)c1nnc(Nc2cc(COC)ccn2)cc1Nc1cccc(-c2ncn(C)n2)c1OC [Example 135] | 1.4 | 3.83 | – | –
CNC(=O)c1nnc(NC(=O)C2CC2)cc1Nc1cccc(-c2cccnn2)c1OC [Example 78] | – | 320 | – | –
CNC(=O)c1nnc(NC(=O)C2CC2)cc1Nc1cccc(-c2ccncn2)c1OC [Example 86] | – | 30 | – | –
CNC(=O)c1nnc(NC(=O)C2CC2)cc1Nc1cccc(-c2cnccn2)c1OC [Example 75] | – | 70 | – | –
CNC(=O)c1nnc(NC(=O)C2CC2)cc1Nc1cccc(-c2nccc(C)n2)c1OC [Example 82] | – | 110 | – | –
CNC(=O)c1nnc(NC(=O)C2CC2)cc1Nc1cccc(-c2cnn(CC(F)F)c2)c1OC [Example 187] | – | 50 | – | –
CNC(=O)c1nnc(NC(=O)C2CC2)cc1Nc1cccc(-c2ncccn2)c1OC [Example 70] | – | 20 | – | –
CNC(=O)c1nnc(Nc2cc(C)n(C)n2)cc1Nc1cccc(-c2ncc(C)s2)c1OC [Example 104] | 40 | – | – | –

Results, then the compound that gave them:

IC50 [1] [nM] | IC50 [2] [nM] | IC50 ([1]; KIT225) [nM] | IC50 ([2]; KIT225) [nM] | SMILES
40 | 50 | – | – | CNC(=O)c1nnc(Nc2ccc(F)cn2)cc1Nc1cccc(-c2nccc(C)n2)c1OC [Example 83]
80 | 540 | – | – | CCOc1ccnc(Nc2cc(Nc3ccccc3S(C)(=O)=O)c(C(=O)NC)nn2)c1 [Example 37]
30 | 110 | – | – | CCc1ccnc(Nc2cc(Nc3ccccc3S(C)(=O)=O)c(C(=O)NC)nn2)c1 [Example 36]
130 | 50 | – | – | CNC(=O)c1nnc(Nc2ccccn2)cc1Nc1cccc(C(=O)NCC(F)(F)F)c1OC [Example 171]
50 | 70 | – | – | CNC(=O)c1nnc(Nc2cc(C)nc(C)n2)cc1Nc1ccccc1S(C)(=O)=O [Example 7]
3.62 | 20 | – | – | CNC(=O)c1nnc(Nc2ccccn2)cc1Nc1cccc(-c2ncccn2)c1OC [Example 91]
260 | 150 | – | – | CNC(=O)c1nnc(Nc2cc(OC)ncn2)cc1Nc1ccccc1S(C)(=O)=O [Example 42]
50 | 20 | – | – | CNC(=O)c1nnc(Nc2cc3ccccc3cn2)cc1Nc1ccccc1S(C)(=O)=O [Example 13]
20 | 10 | – | – | CNC(=O)c1nnc(Nc2ccnc(C)n2)cc1Nc1cccc(-c2ncccn2)c1OC [Example 158]
40 | 100 | – | – | CNC(=O)c1nnc(Nc2cc(C)ccn2)cc1Nc1ccccc1S(C)(=O)=O [Example 23]
20 | 50 | – | – | CCc1cc(Nc2cc(Nc3ccccc3S(C)(=O)=O)c(C(=O)NC)nn2)nc(C)n1 [Example 47]
50 | 60 | – | – | CNC(=O)c1nnc(Nc2cc(C)c(C#N)cn2)cc1Nc1ccccc1S(C)(=O)=O [Example 26]
130 | 340 | – | – | CNC(=O)c1nnc(Nc2ccnc(C)n2)cc1Nc1ccccc1S(C)(=O)=O [Example 39]
230 | 340 | – | – | CNC(=O)c1nnc(Nc2ccccn2)cc1Nc1cccc(C(=O)NC2CC2)c1OC [Example 165]
90 | 60 | – | – | CNC(=O)c1nnc(Nc2cc(F)ccn2)cc1Nc1ccccc1S(C)(=O)=O [Example 9]
30 | 80 | – | – | CNC(=O)c1nnc(Nc2ccc(F)cn2)cc1Nc1cccc(-c2cccnn2)c1OC [Example 79]

IC50 [1] [nM] | IC50 [2] [nM] | IC50 ([1]; KIT225) [nM] | IC50 ([2]; KIT225) [nM] | SMILES
7.38 | 40 | – | – | CNC(=O)c1nnc(Nc2ccccn2)cc1Nc1cccc(-c2ccncn2)c1OC [Example 96]
110 | 190 | – | – | CNC(=O)c1nnc(Nc2ccc(F)cn2)cc1Nc1ccccc1S(C)(=O)=O [Example 6]
30 | 40 | – | – | CNC(=O)c1cccc(Nc2cc(Nc3ccccn3)nnc2C(=O)NC)c1OC [Example 169]
5.99 | 10 | – | – | CNC(=O)c1nnc(Nc2ccc(F)cn2)cc1Nc1cccc(-c2ncccn2)c1OC [Example 71]
4.41 | 30 | – | – | CNC(=O)c1nnc(Nc2cnc(C)cn2)cc1Nc1cccc(-c2ncccn2)c1OC [Example 113]
90 | 80 | – | – | CNC(=O)c1nnc(Nc2ccccn2)cc1Nc1ccccc1S(C)(=O)=O [Example 31]
310 | 420 | – | – | CNC(=O)c1nnc(Nc2cc(OC(C)C)ncn2)cc1Nc1ccccc1S(C)(=O)=O [Example 45]
70 | 460 | – | – | CNC(=O)c1nnc(Nc2cc(OC)nc(C)n2)cc1Nc1ccccc1S(C)(=O)=O [Example 43]
8.44 | 10 | – | – | CNC(=O)c1nnc(Nc2ccccn2)cc1Nc1cccc(-c2nnnn2C)c1OC [Example 145]
20 | 20 | – | – | CNC(=O)c1nnc(Nc2ccccn2)cc1Nc1cccc(-c2cscn2)c1OC [Example 132]
90 | 130 | – | – | CNC(=O)c1nnc(Nc2cc(C)ncn2)cc1Nc1ccccc1S(C)(=O)=O [Example 8]
60 | 200 | – | – | CCc1cc(Nc2cc(Nc3ccccc3S(C)(=O)=O)c(C(=O)NC)nn2)ncn1 [Example 46]
60 | 100 | – | – | CNC(=O)c1nnc(Nc2ccc(F)cn2)cc1Nc1ccccc1S(C)(=O)=O [Example 3]
2.18 | 20 | – | – | CNC(=O)c1nnc(Nc2ccc(F)cn2)cc1Nc1cccc(-c2ccncn2)c1OC [Example 89]
– | 130 | – | – | CNC(=O)c1nnc(NC(=O)C2CC2)cc1Nc1cccc(-c2ccccn2)c1OC [Example 72]
